In patent publication US4889860A (Nova Pharmaceutical Corporation, priority 1987, dated 1989):

How the values were obtained:
[1] = water intake in 24 hr food-deprived rats; type: in vivo, rat; details: for Water Intake: Table 3, 24 hr; for Cumulative Water Intake: Table 5
Description: Rats were given water and powdered food ad lib for 8 days until food intake had stabilized, and body weight and food and water intakes were recorded at the same time every day. Animals were assigned to treatment groups matched on the basis of their 24 hr food consumption on the last baseline day, and rats were food deprived for 24 hr immediately before injection of the test compound. […] The compound of Example XII was injected S.C. at doses of 1.15, 2.31, 11.55 and 23.09 μmol/kg, in a volume of 4 ml/kg of 0.3% acetic acid. Controls were injected with the vehicle solutions in the appropriate volumes. Food and water intakes were measured at 1, 3 and 24 hr after treatment. Data for each measure and time point were analyzed by one-way analysis of variance (ANOVA), and post-hoc comparisons were performed using Dunnett's test in order to compare the control mean to each of the treatment means.
Rats were given water and powdered food for 8 days, and following this,
Testing was performed as described above, and baseline measurements were recorded for 7 days. […] The compound of Example XII was injected at doses of 11.55, 23.09, 46.19 and 92.38 μmol/kg by suspension in a solution of 1:1 DMSO:water in a volume of 3 ml/kg. Food and water intakes were recorded at 1, 2, 4 and 6 h following treatment.
See Table 3 for experimental details, except that baseline measurements

[2] = system: oxymorphonazine (OMZ)-induced analgesia; assay: antagonism of oxymorphonazine (OMZ)-induced analgesia (tail flick) in rats; type: in vivo, rat
Description: The compound of Example XII was evaluated for its potency and duration in the antagonism of oxymorphonazine (OMZ)-induced analgesia. […] Data represent the mean SEM of 4-5 animals per group.
(Cowan A. Trendsin Pharmacology Science, 7:69-72, 1986) With this test the intracerebroventricular administration of bombesin produces a characteristic scratching response.

[3] = S.C., dose tested (mg/kg): Naltrexone 0.5, Nalmefene 1.0, XI 10.0, XII 2.5, XIII 0.5, XIV 5.0

Oc1ccc2c3c1O[C@H]1C(=NOc4ccccc4)CC[C@@]4(O)[C@@H](C2)N(CC2CC2)CC[C@]314 [Example XII, 6-Phenyloximino-17-cyclopropylmethyl-4,5 α-epoxy-3, 14-dihydroxymorphinan]
Water Intake ([1]; S.C. 1.15 μmol/kg): 68.3 ± 8.8 mL | Water Intake ([1]; S.C. 2.31 μmol/kg): 65.0 ± 6.2 mL | Water Intake ([1]; S.C. 11.55 μmol/kg): 60.3 ± 2.1 mL | Water Intake ([1]; S.C. 23.09 μmol/kg): 62.8 ± 3.6 mL | Cumulative Water Intake ([1]; S.C. 11.55 μmol/kg, 0-1 Hr): 4.8 ± 1.1 mL | Cumulative Water Intake ([1]; S.C. 11.55 μmol/kg, 0-2 Hr): 8.0 ± 1.2 mL | Cumulative Water Intake ([1]; S.C. 11.55 μmol/kg, 0-4 Hr): 15.6 ± 2.5 mL | Cumulative Water Intake ([1]; S.C. 11.55 μmol/kg, 0-6 Hr): 22.0 ± 1.6 mL | Cumulative Water Intake ([1]; S.C. 23.09 μmol/kg, 0-1 Hr): 4.0 ± 1.0 mL | Cumulative Water Intake ([1]; S.C. 23.09 μmol/kg, 0-2 Hr): 7.2 ± 0.6 mL | Cumulative Water Intake ([1]; S.C. 23.09 μmol/kg, 0-4 Hr): 13.2 ± 2.3 mL | Cumulative Water Intake ([1]; S.C. 23.09 μmol/kg, 0-6 Hr): 19.6 ± 2.2 mL | Cumulative Water Intake ([1]; S.C. 46.19 μmol/kg, 0-1 Hr): 5.2 ± 0.9 mL | Cumulative Water Intake ([1]; S.C. 46.19 μmol/kg, 0-2 Hr): 8.0 ± 1.6 mL | Cumulative Water Intake ([1]; S.C. 46.19 μmol/kg, 0-4 Hr): 15.2 ± 1.5 mL | Cumulative Water Intake ([1]; S.C. 46.19 μmol/kg, 0-6 Hr): 20.8 ± 2.9 mL | Cumulative Water Intake ([1]; S.C. 92.38 μmol/kg, 0-1 Hr): 4.0 ± 0.7 mL | Cumulative Water Intake ([1]; S.C. 92.38 μmol/kg, 0-2 Hr): 7.6 ± 0.8 mL | Cumulative Water Intake ([1]; S.C. 92.38 μmol/kg, 0-4 Hr): 15.2 ± 1.8 mL | Cumulative Water Intake ([1]; S.C. 92.38 μmol/kg, 0-6 Hr): 21.2 ± 2.1 mL | antagonism of OMZ-induced analgesia, PO ([2]; PO, 42.64 μmol/kg, 0.5 hours): 50% | ED50 ([2]; Rattus norvegicus, sc, Table 8, S.C., read-out: ED 50, oxymorphonazine antagonism): 0.34 mg/kg | ED100 ([2]; Rattus norvegicus, sc, Table 8, S.C., read-out: ED 100, oxymorphonazine antagonism): 3.1 mg/kg | Percent Antagonism at 1 Hr [2, 3]: 90% | Percent Antagonism at 1.5 Hr [2, 3]: 92% | Percent Antagonism at 2 Hr [2, 3]: 91% | Percent Antagonism at 3 Hr [2, 3]: 77% | Percent Antagonism at 4 Hr [2, 3]: 91% | Percent Antagonism at 6 Hr [2, 3]: 92% | Percent Antagonism at 8 Hr [2, 3]: 80%
